Laboratory results published in patent US20240376121A1, “COMPOUNDS AND USES THEREOF” (Foghorn Therapeutics Inc., priority 2021, published 2024).

Experiments:
[1] = biological target: T1, HiBit-BRG1 fusion protein (Homo sapiens, UniProt P51532); experiment: HiBiT-BRG1 cell-based degradation assay (Nano-Glo HiBiT Lytic Detection); conditions: stable HeLa cell line expressing HiBit-BRG1 and LgBit, 24 h incubation; for Dmax: top dose 30 μM, read-out: BRG1 HiBit Degradation Maximum (%); for DC50: read-out: BRMG1 HiBit Degradation IC50
T1 construct: expressed in transfected cells
Outline: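 HeLa cells stably expressing HiBiT-BRG1 and LgBiT treated 24 h with 10-point 3-fold dilutions (top 30 μM, duplicate). Luminescence read after Nano-Glo HiBiT lytic reagent; % degradation relative to DMSO (high control) and 2 μM reference BRM/BRG1 degrader (low control).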

[2] = biological target: T2, HiBit-BRM fusion protein (Homo sapiens, UniProt P51531); experiment: HiBiT-BRM cell-based degradation assay (Nano-Glo HiBiT Lytic Detection); conditions: stable HeLa cell line expressing HiBiT-BRM, 24 h incubation; for BRM HiBit Degradation Maximum (%): top dose 30 μM; for DC50: read-out: BRM HiBit Degradation IC50
T2 construct: expressed in transfected cells
Outline: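 HeLa cells stably expressing HiBiT-BRM were dosed with compounds (10-point 3-fold dilutions, 30 μM final top dose, duplicate) for 24 h. HiBiT signal was read by lytic LgBiT complementation luminescence. Percent degradation was normalised to DMSO (high control) and 2 μM of a reference BRM/BRG1 degrader (low control).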

T2 sequence (P51531 whole entry, the tested form may be a part): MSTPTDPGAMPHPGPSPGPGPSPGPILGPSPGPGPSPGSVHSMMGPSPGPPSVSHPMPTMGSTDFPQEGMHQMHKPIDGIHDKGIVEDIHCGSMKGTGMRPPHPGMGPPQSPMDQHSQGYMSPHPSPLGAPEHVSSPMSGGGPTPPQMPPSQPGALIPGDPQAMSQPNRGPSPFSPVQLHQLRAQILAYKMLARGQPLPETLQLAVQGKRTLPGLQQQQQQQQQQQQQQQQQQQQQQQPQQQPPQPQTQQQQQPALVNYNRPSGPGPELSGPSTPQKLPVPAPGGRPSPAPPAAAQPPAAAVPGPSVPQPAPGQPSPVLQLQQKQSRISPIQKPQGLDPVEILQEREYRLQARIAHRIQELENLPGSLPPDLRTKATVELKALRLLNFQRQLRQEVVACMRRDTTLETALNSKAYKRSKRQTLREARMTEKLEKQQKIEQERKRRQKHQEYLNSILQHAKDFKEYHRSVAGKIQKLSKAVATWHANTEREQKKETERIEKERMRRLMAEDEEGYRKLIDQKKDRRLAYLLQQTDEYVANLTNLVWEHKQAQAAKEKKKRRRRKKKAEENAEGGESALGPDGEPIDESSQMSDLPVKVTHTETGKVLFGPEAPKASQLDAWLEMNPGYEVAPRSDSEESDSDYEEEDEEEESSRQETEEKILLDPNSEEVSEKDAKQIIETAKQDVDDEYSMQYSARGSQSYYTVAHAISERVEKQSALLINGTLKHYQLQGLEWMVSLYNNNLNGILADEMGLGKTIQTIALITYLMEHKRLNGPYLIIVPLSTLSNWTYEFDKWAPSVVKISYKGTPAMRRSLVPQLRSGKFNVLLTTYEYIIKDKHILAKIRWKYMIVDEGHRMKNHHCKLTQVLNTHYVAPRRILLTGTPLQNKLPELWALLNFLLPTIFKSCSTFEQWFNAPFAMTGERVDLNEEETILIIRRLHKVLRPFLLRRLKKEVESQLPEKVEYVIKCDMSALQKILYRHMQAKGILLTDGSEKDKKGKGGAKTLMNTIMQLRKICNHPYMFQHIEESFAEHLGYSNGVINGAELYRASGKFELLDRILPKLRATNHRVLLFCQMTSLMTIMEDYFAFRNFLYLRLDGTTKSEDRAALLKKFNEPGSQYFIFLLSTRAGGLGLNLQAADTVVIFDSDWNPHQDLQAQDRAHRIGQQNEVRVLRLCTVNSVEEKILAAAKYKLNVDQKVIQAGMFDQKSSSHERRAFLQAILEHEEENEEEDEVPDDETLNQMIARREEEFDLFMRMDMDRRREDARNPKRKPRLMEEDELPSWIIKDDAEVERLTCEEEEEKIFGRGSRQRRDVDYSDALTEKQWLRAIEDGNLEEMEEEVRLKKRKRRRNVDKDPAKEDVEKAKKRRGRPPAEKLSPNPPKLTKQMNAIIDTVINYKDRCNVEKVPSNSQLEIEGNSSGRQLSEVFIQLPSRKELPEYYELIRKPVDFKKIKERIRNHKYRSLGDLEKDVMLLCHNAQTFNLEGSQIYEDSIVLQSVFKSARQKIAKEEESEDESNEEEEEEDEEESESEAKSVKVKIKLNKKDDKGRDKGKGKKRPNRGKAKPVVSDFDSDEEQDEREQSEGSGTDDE
T1 sequence (P51532 whole entry, the tested form may be a part): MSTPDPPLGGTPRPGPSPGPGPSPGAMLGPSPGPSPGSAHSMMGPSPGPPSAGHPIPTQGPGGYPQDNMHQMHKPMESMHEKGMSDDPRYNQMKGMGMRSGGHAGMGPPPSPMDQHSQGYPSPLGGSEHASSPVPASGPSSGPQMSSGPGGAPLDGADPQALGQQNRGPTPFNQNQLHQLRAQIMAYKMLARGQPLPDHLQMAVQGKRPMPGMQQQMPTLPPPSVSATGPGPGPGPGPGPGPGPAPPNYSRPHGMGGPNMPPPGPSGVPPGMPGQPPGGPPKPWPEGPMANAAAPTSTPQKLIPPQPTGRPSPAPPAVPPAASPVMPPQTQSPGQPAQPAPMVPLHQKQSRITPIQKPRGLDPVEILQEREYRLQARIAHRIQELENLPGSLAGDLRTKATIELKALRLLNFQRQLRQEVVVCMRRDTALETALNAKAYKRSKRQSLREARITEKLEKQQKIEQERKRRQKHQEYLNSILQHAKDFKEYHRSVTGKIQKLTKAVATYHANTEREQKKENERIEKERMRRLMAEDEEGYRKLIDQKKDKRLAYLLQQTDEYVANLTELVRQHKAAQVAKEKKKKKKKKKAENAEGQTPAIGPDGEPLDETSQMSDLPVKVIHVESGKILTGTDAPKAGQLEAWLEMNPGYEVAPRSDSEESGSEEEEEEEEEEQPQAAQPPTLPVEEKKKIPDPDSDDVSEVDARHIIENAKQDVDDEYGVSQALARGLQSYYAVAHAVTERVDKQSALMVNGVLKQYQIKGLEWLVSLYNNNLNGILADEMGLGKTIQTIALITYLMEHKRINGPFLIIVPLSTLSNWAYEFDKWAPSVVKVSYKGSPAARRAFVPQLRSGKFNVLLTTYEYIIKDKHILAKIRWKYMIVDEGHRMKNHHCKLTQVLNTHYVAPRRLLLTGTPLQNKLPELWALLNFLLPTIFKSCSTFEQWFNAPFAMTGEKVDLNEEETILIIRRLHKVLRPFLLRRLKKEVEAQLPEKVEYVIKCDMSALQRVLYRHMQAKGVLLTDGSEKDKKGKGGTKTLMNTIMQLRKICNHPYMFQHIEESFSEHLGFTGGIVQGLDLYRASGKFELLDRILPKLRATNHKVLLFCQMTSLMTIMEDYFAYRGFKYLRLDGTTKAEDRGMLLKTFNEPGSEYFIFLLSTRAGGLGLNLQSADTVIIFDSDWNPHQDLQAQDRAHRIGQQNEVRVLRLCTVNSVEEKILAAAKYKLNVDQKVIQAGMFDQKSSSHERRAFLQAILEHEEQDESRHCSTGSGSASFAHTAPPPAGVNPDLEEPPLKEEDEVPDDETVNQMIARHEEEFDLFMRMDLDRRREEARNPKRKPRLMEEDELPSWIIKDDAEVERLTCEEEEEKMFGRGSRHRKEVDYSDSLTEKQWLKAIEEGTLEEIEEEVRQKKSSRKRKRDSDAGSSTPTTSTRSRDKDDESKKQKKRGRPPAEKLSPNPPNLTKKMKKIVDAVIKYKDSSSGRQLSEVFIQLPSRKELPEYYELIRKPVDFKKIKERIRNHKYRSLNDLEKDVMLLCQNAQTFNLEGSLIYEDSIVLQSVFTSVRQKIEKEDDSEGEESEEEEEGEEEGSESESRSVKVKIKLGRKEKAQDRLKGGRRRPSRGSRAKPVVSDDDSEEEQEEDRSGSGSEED

Row | Dmax [1] | DC50 [1] | DC50 [2] | Structure (SMILES) | BRM HiBit Degradation Maximum (%) [2]
1 | < 50% | ≥ 1000 nM | ≥ 100 nM | Cc1ncsc1-c1ccc([C@H](C)NC(=O)[C@@H]2C[C@@H](O)CN2C(=O)[C@@H](c2cc(N3C[C@H]4C[C@@H]3CN4C(=O)[C@@H]3CCc4sc5nnc(-c6ccccc6O)cc5c4C3)no2)C(C)C)cc1 [Compound 42, (2S,4R)-4-hydroxy-1-((R)-2-(3-((1R,4R)-5-((R)-3-(2-hydroxyphenyl)-5,6,7,8-tetrahydrobenzo[4,5]thieno[2,3-c]pyridazine-6-carbonyl)-2,5-diazabicyclo[2.2.1]heptan-2-yl)isoxazol-5-yl)-3-methylbutanoyl)-N—((S)-1-(4-(4-methylthiazol-5-yl)phenyl)ethyl)pyrrolidine-2-carboxamide] | A (“A” indicates maximum degradation ≥ 75%)
2 | < 50% | ≥ 1000 nM | ≥ 10 nM | Cc1ncsc1-c1ccc(CNC(=O)[C@@H]2C[C@@H](O)CN2C(=O)[C@@H](c2cc(N3CCOCC3)no2)C(C)C)c(OCCCN2CCC(c3sc4nnc(-c5ccccc5O)cc4c3C)CC2)c1 (single isomer, unassigned) [Compound 56] | B (“B” indicates maximum degradation ≥ 50%)
3 | < 50% | ≥ 100 nM | ≥ 10 nM | Cc1ncsc1-c1ccc(CNC(=O)[C@@H]2C[C@@H](O)CN2C(=O)[C@@H](NC(=O)C2(F)CC2)C(C)(C)C)c(OCCCN2CCC(c3cc4nnc(-c5ccccc5O)cc4s3)CC2)c1 [Compound 76, (2S,4R)-1-((S)-2-(1-fluorocyclopropane-1-carboxamido)-3,3-dimethylbutanoyl)-4-hydroxy-N-(2-(3-(4-(3-(2-hydroxyphenyl)thieno[3,2-c]pyridazin-6-yl)piperidin-1-yl)propoxy)-4-(4-methylthiazol-5-yl)benzyl)pyrrolidine-2-carboxamide] | B (“B” indicates maximum degradation ≥ 50%)
4 | < 50% | ≥ 1000 nM | ≥ 100 nM | Cc1ncsc1-c1ccc([C@@H](C)NC(=O)[C@H]2C[C@H](O)CN2C(=O)[C@H](c2cc(OCCN3CC(Cc4cc5cc(-c6ccccc6O)nnc5s4)C3)no2)C(C)C)cc1 [Compound 23] | B (“B” indicates maximum degradation ≥ 50%)
5 | < 50% | ≥ 1000 nM | ≥ 1000 nM | Cc1ncsc1-c1ccc([C@H](C)NC(=O)[C@@H]2C[C@@H](O)CN2C(=O)[C@@H](NC(=O)[C@H]2CC[C@H](c3sc4nnc(-c5ccccc5O)cc4c3C)CC2)C(C)(C)C)cc1 [Compound 51, (2S,4R)-4-hydroxy-1-((S)-2-((1r,4S)-4-(3-(2-hydroxyphenyl)-5-methylthieno[2,3-c]pyridazin-6-yl)cyclohexane-1-carboxamido)-3,3-dimethylbutanoyl)-N-((S)-1-(4-(4-methylthiazol-5-yl)phenyl)ethyl)pyrrolidine-2-carboxamide] | C (“C” indicates maximum degradation < 50%)
6 | < 50% | ≥ 1000 nM | ≥ 1000 nM | Cc1ncsc1-c1ccc(CNC(=O)[C@@H]2C[C@@H](O)CN2C(=O)[C@@H](NC(=O)C2(F)CC2)C(C)(C)C)c(OCC(=O)N2CCC(c3sc4nnc(-c5ccccc5O)cc4c3C)CC2)c1 [Compound 82, (2S,4R)-1-((S)-2-(1-fluorocyclopropane-1-carboxamido)-3,3-dimethylbutanoyl)-4-hydroxy-N-(2-(2-(4-(3-(2-hydroxyphenyl)-5-methylthieno[2,3-c]pyridazin-6-yl)piperidin-1-yl)-2-oxoethoxy)-4-(4-methylthiazol-5-yl)benzyl)pyrrolidine-2-carboxamide] | C (“C” indicates maximum degradation < 50%)
7 | < 50% | ≥ 1000 nM | ≥ 100 nM | Cc1ncsc1-c1ccc([C@H](C)NC(=O)[C@@H]2C[C@@H](O)CN2C(=O)[C@@H](c2cc(OCCN3CCC(c4sc5nnc(-c6ccccc6O)cc5c4F)CC3)no2)C(C)C)cc1 [Compound 68, (2S,4R)-1-((R)-2-(3-(2-(4-(5-fluoro-3-(2-hydroxyphenyl)thieno[2,3-c]pyridazin-6-yl)piperidin-1-yl)ethoxy)isoxazol-5-yl)-3-methylbutanoyl)-4-hydroxy-N-((S)-1-(4-(4-methylthiazol-5-yl)phenyl)ethyl)pyrrolidine-2-carboxamide] | B (“B” indicates maximum degradation ≥ 50%)
8 | < 50% | ≥ 1000 nM | ≥ 10 nM | Cc1ncsc1-c1ccc([C@H](C)NC(=O)[C@@H]2C[C@@H](O)CN2C(=O)[C@@H](c2cc(OCCN3CCC(c4cc5cc(-c6ccccc6O)nnc5s4)CC3)no2)C(C)C)cc1 [Compound 2, (2S,4R)-4-hydroxy-1-((R)-2-(3-(2-(4-(3-(2-hydroxyphenyl)thieno[2,3-c]pyridazin-6-yl)piperidin-1-yl)ethoxy)isoxazol-5-yl)-3-methylbutanoyl)-N—((S)-1-(4-(4-methylthiazol-5-yl)phenyl)ethyl)pyrrolidine-2-carboxamide] | A (“A” indicates maximum degradation ≥ 75%)
9 | < 50% | ≥ 1000 nM | ≥ 10 nM | Cc1ncsc1-c1ccc([C@H](C)NC(=O)[C@@H]2C[C@@H](O)CN2C(=O)C(c2cc(C3CC(N4CCC(c5sc6nnc(-c7ccccc7O)cc6c5C)CC4)C3)no2)C(C)C)cc1 (single isomer, unassigned) [Compound 34] | A (“A” indicates maximum degradation ≥ 75%)
10 | < 50% | ≥ 1000 nM | ≥ 10 nM | Cc1ncsc1-c1ccc([C@H](C)NC(=O)[C@@H]2C[C@@H](O)CN2C(=O)[C@@H](c2cc(OCCN3CC(c4cc5nnc(-c6ccccc6O)cc5s4)C3)no2)C(C)C)cc1 [Compound 9, (2S,4R)-4-hydroxy-1-((R)-2-(3-(2-(3-(3-(2-hydroxyphenyl)thieno[3,2-c]pyridazin-6-yl)azetidin-1-yl)ethoxy)isoxazol-5-yl)-3-methylbutanoyl)-N—((S)-1-(4-(4-methylthiazol-5-yl)phenyl)ethyl)pyrrolidine-2-carboxamide] | A (“A” indicates maximum degradation ≥ 75%)
11 | < 50% | ≥ 1000 nM | ≥ 10 nM | Cc1ncsc1-c1ccc([C@H](C)NC(=O)[C@@H]2C[C@@H](O)CN2C(=O)[C@@H](c2cc(OCCCN3CC(c4cc5nnc(-c6ccccc6O)cc5s4)C3)no2)C(C)C)cc1 [Compound 104, (2S,4R)-4-hydroxy-1-((R)-2-(3-(3-(3-(3-(2-hydroxyphenyl)thieno[3,2-c]pyridazin-6-yl)azetidin-1-yl)propoxy)isoxazol-5-yl)-3-methylbutanoyl)-N-((S)-1-(4-(4-methylthiazol-5-yl)phenyl)ethyl)pyrrolidine-2-carboxamide] | B (“B” indicates maximum degradation ≥ 50%)
12 | ≥ 75% | ≥ 100 nM | ≥ 10 nM | Cc1ncsc1-c1ccc(CNC(=O)[C@@H]2C[C@@H](O)CN2C(=O)[C@@H](NC(=O)[C@H]2CC[C@H](c3cnc(N4CCC(c5sc6nnc(-c7ccccc7O)cc6c5C)CC4)nc3)CC2)C(C)(C)C)cc1 [Compound 85, (2S,4R)-4-hydroxy-1-((S)-2-((1r,4S)-4-(2-(4-(3-(2-hydroxyphenyl)-5-methylthieno[2,3-c]pyridazin-6-yl)piperidin-1-yl)pyrimidin-5-yl)cyclohexane-1-carboxamido)-3,3-dimethylbutanoyl)-N-(4-(4-methylthiazol-5-yl)benzyl)pyrrolidine-2-carboxamide] | A (“A” indicates maximum degradation ≥ 75%)
13 | ≥ 75% | ≥ 10 nM | < 10 nM | Cc1ncsc1-c1ccc([C@H](C)NC(=O)[C@@H]2C[C@@H](O)CN2C(=O)[C@@H](c2cc(OCCN3CCN(c4cc5nnc(-c6ccccc6O)cc5s4)CC3)no2)C(C)C)cc1 [Compound 49, (2S,4R)-4-hydroxy-1-((R)-2-(3-(2-(4-(3-(2-hydroxyphenyl)thieno[3,2-c]pyridazin-6-yl)piperazin-1-yl)ethoxy)isoxazol-5-yl)-3-methylbutanoyl)-N-((S)-1-(4-(4-methylthiazol-5-yl)phenyl)ethyl)pyrrolidine-2-carboxamide] | A (“A” indicates maximum degradation ≥ 75%)
14 | < 50% | ≥ 1000 nM | ≥ 10 nM | Cc1ncsc1-c1ccc([C@H](C)NC(=O)[C@@H]2C[C@@H](O)CN2C(=O)[C@@H](c2cc(OCCN3CC4(CC(c5sc6nnc(-c7ccccc7O)cc6c5C)C4)C3)no2)C(C)C)cc1 [Compound 88, (2S,4R)-4-hydroxy-1-((R)-2-(3-(2-(6-(3-(2-hydroxyphenyl)-5-methylthieno[2,3-c]pyridazin-6-yl)-2-azaspiro[3.3]heptan-2-yl)ethoxy)isoxazol-5-yl)-3-methylbutanoyl)-N-((S)-1-(4-(4-methylthiazol-5-yl)phenyl)ethyl)pyrrolidine-2-carboxamide] | A (“A” indicates maximum degradation ≥ 75%)
